Test results published in ChEMBL document CHEMBL5725865, “Neprilysin inhibitors” (2018).

Assay: Enzyme NEP Inhibition Assay: The assays were performed in 384-well white opaque plates at 37° C. using the fluorogenic peptide substrates at a concentration of 10 μM in Assay Buffer (NEP: 50 mM HEPES, pH 7.5, 100 mM NaCl, 0.01% polyethylene glycol sorbitan monolaurate (Tween-20), 10 μM ZnSO4; ACE: 50 mM HEPES, pH 7.5, 100 mM NaCl, 0.01% Tween-20, 1 μM ZnSO4). The respective enzymes were used at …
Description: Enzyme NEP Inhibition Assay: The assays were performed in 384-well white opaque plates at 37° C. using the fluorogenic peptide substrates at a concentration of 10 μM in Assay Buffer (NEP: 50 mM HEPES, pH 7.5, 100 mM NaCl, 0.01% polyethylene glycol sorbitan monolaurate (Tween-20), 10 μM ZnSO4; ACE: 50 mM HEPES, pH 7.5, 100 mM NaCl, 0.01% Tween-20, 1 μM ZnSO4). […] Test compounds were added to the enzymes and incubated for 30 minute at 37° C. prior to initiating the reaction by the addition of substrate.

Compound: O=C(O)C(=O)N[C@H](Cc1ccc(-c2ccccc2)cc1)CC(O)C(=O)O (stereo partly specified)
- Ki: in the range around 35.5 nM
